How the values were obtained:
ACVR2A = ACVR2A (Homo sapiens, UniProt P27037); experiment: LanthaScreen Eu kinase binding assay, BMP type II receptor ACVR2A; conditions: 10-point titration from 10 μM, 3-fold serial dilution, Life Technologies
Source text: (§1) For the detailed description of LanthaScreen™ Eu kinase binding assay condition, please see: https://www.thermofisher.com/us/en/home/industrial/pharma-biopharma/drug-discovery-development/target-and-lead-identification-and-validation/kinasebiology/kinase-activity-assays/lanthascreentm-eu-kinas e-binding-assay/lanthascreen-eu-kinase-binding-assay-validation-table.html.

ACVR2B = ACVR2B (Homo sapiens, UniProt Q13705); experiment: LanthaScreen Eu kinase binding assay, BMP type II receptor ACVR2B; conditions: 10-point titration from 10 μM, 3-fold serial dilution, Life Technologies
Experimental: (§2) Kinase Profiling BMP Type II Receptor Experimental Procedure (Life Technologies, 5225 Vernona Road, Madison, Wis. 53744)
(§3) The measurement of each compound's half maximal inhibitory concentration (IC50) for BMP type II receptors (ACVR2A, ACVR2B, BMPR2 and TGFbR2) was carried out at Life Technologies by using its 10-point titration (starting concentration: 10 μM with 3-fold serial dilution) LanthaScreen™ biochemical kinase assay protocol. For the detailed description of LanthaScreen™ Eu kinase binding assay condition, please see: https://www.thermofisher.com/us/en/home/industrial/pharma-biopharma/drug-discovery-development/target-and-lead-identification-and-validation/kinasebiology/kinase-activity-assays/lanthascreentm-eu-kinas e-binding-assay/lanthascreen-eu-kinase-binding-assay-validation-table.html.

BMPR2 = biological target: T1, BMPR2 (Homo sapiens, UniProt Q13873); experiment: LanthaScreen Eu kinase binding assay, BMP type II receptor BMPR2; conditions: 10-point titration from 10 μM, 3-fold serial dilution, Life Technologies
T1 sequence (Q13873 27-1038): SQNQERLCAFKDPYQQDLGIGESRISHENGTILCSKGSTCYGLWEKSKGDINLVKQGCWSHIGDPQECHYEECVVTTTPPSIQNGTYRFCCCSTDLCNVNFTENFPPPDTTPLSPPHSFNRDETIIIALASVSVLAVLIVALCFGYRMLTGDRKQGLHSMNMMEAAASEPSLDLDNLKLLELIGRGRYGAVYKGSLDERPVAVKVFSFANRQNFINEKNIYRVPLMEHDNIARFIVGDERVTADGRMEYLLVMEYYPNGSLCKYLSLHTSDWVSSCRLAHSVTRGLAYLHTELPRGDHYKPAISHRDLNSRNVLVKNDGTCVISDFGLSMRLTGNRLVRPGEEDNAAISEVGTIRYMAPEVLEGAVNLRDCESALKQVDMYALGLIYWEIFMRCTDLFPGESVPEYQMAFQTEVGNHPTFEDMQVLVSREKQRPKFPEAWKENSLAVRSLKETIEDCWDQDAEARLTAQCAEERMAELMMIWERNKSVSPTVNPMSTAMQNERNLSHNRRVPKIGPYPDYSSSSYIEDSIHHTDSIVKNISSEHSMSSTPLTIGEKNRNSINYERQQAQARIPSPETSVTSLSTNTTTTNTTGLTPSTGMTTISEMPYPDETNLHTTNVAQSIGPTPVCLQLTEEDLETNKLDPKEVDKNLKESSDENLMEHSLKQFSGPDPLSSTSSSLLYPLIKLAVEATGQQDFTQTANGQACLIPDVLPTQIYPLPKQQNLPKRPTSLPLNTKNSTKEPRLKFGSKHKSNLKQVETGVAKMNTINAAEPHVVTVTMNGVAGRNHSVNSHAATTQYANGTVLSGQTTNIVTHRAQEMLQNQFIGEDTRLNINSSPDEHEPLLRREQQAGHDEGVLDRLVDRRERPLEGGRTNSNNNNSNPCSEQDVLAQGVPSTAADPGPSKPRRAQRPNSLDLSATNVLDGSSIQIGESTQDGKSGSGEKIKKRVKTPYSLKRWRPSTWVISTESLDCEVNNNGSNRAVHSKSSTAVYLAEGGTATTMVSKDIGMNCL
Experimental: as §2, §3

TGFβR2 = TGFβR2 (Homo sapiens, UniProt P37173); experiment: LanthaScreen Eu kinase binding assay, BMP type II receptor TGFbR2; conditions: 10-point titration from 10 μM, 3-fold serial dilution, Life Technologies
Source text: as §1

BMP6 = experiment: Cell assay HTRF BMP6 (Table 15); format: cell-based
TGFb = experiment: Cell assay HTRF TGFb (Table 15); format: cell-based; conditions: read-out: HRTF TGFb (IC50)
ALK2 [1] = biological target: T2, ALK2 (Homo sapiens, UniProt Q04771); experiment: ALK2 (nM), Table 15; format: biochemical
T2 sequence (Q04771 147-509 limits assumed): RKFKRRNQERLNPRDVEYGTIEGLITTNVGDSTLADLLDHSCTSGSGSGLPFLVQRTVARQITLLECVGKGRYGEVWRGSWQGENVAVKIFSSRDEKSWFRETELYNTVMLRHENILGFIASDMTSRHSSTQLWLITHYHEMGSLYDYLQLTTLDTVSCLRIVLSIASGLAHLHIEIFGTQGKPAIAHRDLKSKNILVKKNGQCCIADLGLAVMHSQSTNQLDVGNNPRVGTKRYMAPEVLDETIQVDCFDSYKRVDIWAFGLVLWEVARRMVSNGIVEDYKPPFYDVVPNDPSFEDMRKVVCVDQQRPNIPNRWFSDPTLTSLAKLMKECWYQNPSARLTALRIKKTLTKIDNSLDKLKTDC

ALK2 [2] = biological target: T3, ALK2 (Mus musculus, UniProt P37172); experiment: Luciferase reporter gene assay for ALK2 activity (C2C12 BRE-Luc SMAD1/5/8 reporter, BMP6 agonist); format: cell-based; conditions: BMP6 50 ng/mL
T3 construct: endogenous in cells; host or cells: C2C12-BRE (BRE-Luc reporter line, G418 selection)
T3 sequence (P37172 21-509): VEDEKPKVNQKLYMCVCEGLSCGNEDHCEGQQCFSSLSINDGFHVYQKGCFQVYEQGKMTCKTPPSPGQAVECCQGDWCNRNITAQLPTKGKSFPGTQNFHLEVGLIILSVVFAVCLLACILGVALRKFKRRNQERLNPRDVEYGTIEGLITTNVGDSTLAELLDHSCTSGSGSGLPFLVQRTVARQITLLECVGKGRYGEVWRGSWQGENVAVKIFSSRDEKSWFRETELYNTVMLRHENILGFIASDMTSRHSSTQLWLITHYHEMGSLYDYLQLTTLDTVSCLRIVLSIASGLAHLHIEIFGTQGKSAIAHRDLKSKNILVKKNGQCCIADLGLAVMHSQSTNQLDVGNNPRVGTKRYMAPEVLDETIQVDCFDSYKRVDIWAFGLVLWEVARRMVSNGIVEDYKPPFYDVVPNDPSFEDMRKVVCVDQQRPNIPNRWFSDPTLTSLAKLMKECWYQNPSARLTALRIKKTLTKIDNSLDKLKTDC
How it was run: (§4)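 TGFβ activity was measured in HEK293T SBE-Luc cells stimulated with 5 ng/mL TGFβ, at compound 10000-30 nM final. ALK2 activity was measured in C2C12 BRE-Luc cells stimulated with 50 ng/mL BMP6, at compound 1000-0.3 nM final. Compound was preincubated 45 min in 2% FBS medium; after ≥18 h agonist exposure, luminescence was read and inhibition expressed as % signal loss versus background-subtracted agonist controls.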

TGFβ = experiment: Luciferase reporter gene assay for TGFβ activity (HEK293T SBE-Luc SMAD2/3 reporter, TGFβ agonist); format: cell-based; conditions: Homo sapiens, HEK-293T, TGFβ 5 ng/mL
How it was run: as §4

Sequence of TGFβR2 (P37173 23-567): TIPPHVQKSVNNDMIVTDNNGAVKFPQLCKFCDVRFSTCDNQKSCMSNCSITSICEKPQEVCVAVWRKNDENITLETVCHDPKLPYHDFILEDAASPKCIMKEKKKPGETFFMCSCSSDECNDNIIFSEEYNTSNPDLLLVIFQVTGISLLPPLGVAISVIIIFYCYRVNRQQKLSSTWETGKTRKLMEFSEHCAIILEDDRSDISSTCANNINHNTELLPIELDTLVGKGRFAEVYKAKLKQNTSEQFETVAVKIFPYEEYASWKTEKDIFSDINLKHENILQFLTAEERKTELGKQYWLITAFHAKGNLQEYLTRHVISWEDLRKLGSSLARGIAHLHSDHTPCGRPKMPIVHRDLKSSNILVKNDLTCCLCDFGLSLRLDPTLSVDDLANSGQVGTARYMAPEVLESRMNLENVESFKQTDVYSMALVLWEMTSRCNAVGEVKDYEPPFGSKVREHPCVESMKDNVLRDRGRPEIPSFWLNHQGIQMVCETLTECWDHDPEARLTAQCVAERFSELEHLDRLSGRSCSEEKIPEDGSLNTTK
Sequence of ACVR2A (P27037 20-513): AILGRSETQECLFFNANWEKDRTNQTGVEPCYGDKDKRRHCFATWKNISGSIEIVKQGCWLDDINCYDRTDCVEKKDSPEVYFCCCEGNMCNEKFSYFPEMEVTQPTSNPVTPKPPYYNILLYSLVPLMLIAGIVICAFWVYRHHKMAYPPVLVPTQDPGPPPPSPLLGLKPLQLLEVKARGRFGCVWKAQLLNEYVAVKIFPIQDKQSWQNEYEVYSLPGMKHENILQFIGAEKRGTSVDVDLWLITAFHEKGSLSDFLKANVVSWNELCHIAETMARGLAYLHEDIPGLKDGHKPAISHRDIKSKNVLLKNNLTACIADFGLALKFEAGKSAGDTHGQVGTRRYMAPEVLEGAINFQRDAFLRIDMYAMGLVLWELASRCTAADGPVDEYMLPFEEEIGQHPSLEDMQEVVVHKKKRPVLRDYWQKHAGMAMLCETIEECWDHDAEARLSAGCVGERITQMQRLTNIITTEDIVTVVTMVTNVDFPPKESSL
Sequence of ACVR2B (Q13705 19-512): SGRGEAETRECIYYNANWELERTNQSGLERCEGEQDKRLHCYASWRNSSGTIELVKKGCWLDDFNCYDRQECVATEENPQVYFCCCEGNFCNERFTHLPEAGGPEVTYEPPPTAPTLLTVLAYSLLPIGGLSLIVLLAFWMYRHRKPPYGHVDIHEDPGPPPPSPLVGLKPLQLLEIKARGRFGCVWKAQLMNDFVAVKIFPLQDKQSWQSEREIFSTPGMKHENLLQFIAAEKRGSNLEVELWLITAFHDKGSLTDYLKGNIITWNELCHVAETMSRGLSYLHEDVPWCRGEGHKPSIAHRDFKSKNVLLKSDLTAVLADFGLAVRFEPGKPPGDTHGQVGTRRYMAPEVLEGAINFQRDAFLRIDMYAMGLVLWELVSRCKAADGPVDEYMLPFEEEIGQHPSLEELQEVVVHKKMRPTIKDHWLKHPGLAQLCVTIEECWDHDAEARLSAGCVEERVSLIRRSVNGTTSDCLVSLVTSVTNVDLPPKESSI

SMILES | IC50 (ALK2 [2]) [nM] | IC50 (TGFβ) [nM] | further results
c1ccc2c(-c3cnn4cc(N5CCN(C6CCNCC6)CC5)cnc34)ccnc2c1 [Compound 79] |  |  | IC50 (ACVR2A): 851 nM; IC50 (ACVR2B): 1280 nM; IC50 (BMPR2): > 10000 nM; IC50 (TGFβR2): 71.3 nM; IC50 (BMP6): 97.4 nM; IC50 (TGFb): 4610 nM; IC50 (ALK2 [1]): 110 nM
c1ccc2c(-c3cnn4cc(N5CCNCC5)cnc34)ccnc2c1 [Compound 80] | 25 | 33 | IC50 (ACVR2A): 3710 nM; IC50 (ACVR2B): 3610 nM; IC50 (BMPR2): ≥ 10000 nM; IC50 (TGFβR2): 194 nM; IC50 (BMP6): 250 nM; IC50 (TGFb): 5790 nM; IC50 (ALK2 [1]): 93 nM
COc1cc(F)c2nccc(-c3cnn4cc(N5CC(N6CCN(C)CC6)C5)cnc34)c2c1 [Compound 314] | 8 | 27 | 
Cc1cc(-c2cnn3cc(N4CC(N5CCN(C)CC5)C4)cnc23)c2ccc(F)c(F)c2n1 [Compound 315] | 23 | 30 | 
Cc1cc(-c2cnn3cc(N4CC(N5CCN(C)CC5)C4)cnc23)c2cccc(F)c2n1 [Compound 316] | 22 | < 20 | 
[2H]C([2H])([2H])c1ccc2nccc(-c3cnn4cc(N5CCC(N6CCN(C)CC6)CC5)cnc34)c2c1 [Compound 320] | 27 | 605 | 
COc1cc2c(-c3cnn4cc(N5CCC(N6CCN(C)C(=O)C6)CC5)cnc34)ccnc2cc1F [Compound 323] | 194 | > 1000 | 
COc1cc2c(-c3cnn4cc(N5CCC(N6CCN(C)CC6)CC5)cnc34)cc[n+]([O-])c2cc1F [Compound 324] | 178 | 723 | 
COc1cc2c(-c3cnn4cc(N5CCNCC5=O)cnc34)ccnc2cc1F [Compound 326] | > 1000 | > 3000 | 
COc1cc2c(-c3cnn4cc(N5CCC(N6CCN(C)CC6=O)CC5)cnc34)ccnc2cc1F [Compound 329] | > 1000 | > 3000 | 
COc1cc2c(-c3cnc4cc(N5CC(N6CCN(C)CC6)C5)cnn34)ccnc2cc1F [Compound 335] | 47 | > 2000 | 
Cc1cc(-c2cnn3cc(N4CC5(CC(N(C)C)C5)C4)cnc23)c2ccccc2n1 [Compound 337] | 9 | < 1 | 
CN1CCN(C2CN(c3cnc4c(N5CCN(C(=O)C6CC6)CC5)cnn4c3)C2)CC1 [Compound 339] | > 1000 | > 3000 | 
Cc1ccc2nccc(-c3cnn4cc(N5CCC(N6CCOCC6)CC5)cnc34)c2c1 [Compound 341] | 15 | 771 | 
[2H]C([2H])([2H])Oc1cc2c(-c3cnn4cc(N5CCC(N6CCN(C)CC6)CC5)cnc34)ccnc2cc1F [Compound 346] | 18 | 686 | 
Cc1cc(-c2cnn3cc(N4CC(OCCN(C)C)C4)cnc23)c2ccccc2n1 [Compound 350] | 477 | 975 | 
COc1cc2c(-c3cnc4cc(N5CCC(N6CCN(C)CC6)CC5)ccn34)ccnc2cc1F [Compound 351] | 372 | > 3000 | 
COc1cc2c(-c3nnc4cc(N5CCC(N6CCN(C)CC6)CC5)ccn34)ccnc2cc1F [Compound 354] | > 1000 | > 3000 | 
COc1cc2c(-c3cnc4cc(N5CCC(N6CCN(C)CC6)CC5)cnn34)ccnc2cc1F [Compound 355] | 146 | 791 | 
Cc1ccc2nccc(-c3cnn4cc(N5CC(c6ccncc6)C5)cnc34)c2c1 [Example 292] | 159 | 595 | 
Cc1cc(-c2cnn3cc(N4CC5(CC(N)C5)C4)cnc23)c2ccccc2n1 [Example 295] | 13 | 389 | 
COc1cc2c(-c3cnn4cc(N5C[C@@H]6C(N(C)C)[C@@H]6C5)cnc34)ccnc2cc1F (stereo partly drawn) [Example 297] | 21 | > 1000 | 
Cc1cc(-c2cnn3cc(N4CC5(CN(C)C5)C4)cnc23)c2ccccc2n1 [Example 298] | 3 | < 1 | 
Cc1cc2c(-c3cnn4cc(N5CC(N6CCOCC6)C5)cnc34)ccnc2cc1F [Example 301] | 18 | < 20 | 

— US20230000869A1, “NOVEL ALK2 INHIBITORS AND METHODS FOR INHIBITING BMP SIGNALING” (The Brigham and Women's Hospital, Inc., priority 2017, published 2023)
